Measured values reported in the NIST ThermoML archive (doi:10.1016/j.jct.2016.02.009).
Numbers after ± are expanded uncertainties.

Assay: molar heat capacity at constant pressure
Conditions: 101.33 kPa, Small (less than 1 g) adiabatic calorimetry

CCCCCCCCCCn1cc[n+](C)c1.O=S(=O)([N-]S(=O)(=O)C(F)(F)F)C(F)(F)F
molar heat capacity at constant pressure [J/K/mol]
Conditions	Crystal 2	Metastable crystal
58.65 K	–	191.3 ± 1.1
60 K	190.4 ± 1.1	194.8 ± 1.1
60.11 K	190.6 ± 1.1	–
60.78 K	–	196.8 ± 1.1
62.24 K	196.1 ± 1.1	–
62.91 K	–	202.2 ± 1.1
64.38 K	201.3 ± 1.1	–
65.05 K	–	207.5 ± 1.2
66.52 K	206.5 ± 1.2	–
67.19 K	–	212.7 ± 1.2
68.65 K	211.6 ± 1.2	–
69.32 K	–	217.8 ± 1.2
70 K	214.9 ± 1.2	219.4 ± 1.2
70.79 K	216.6 ± 1.2	–
71.56 K	–	223.1 ± 1.2
73.03 K	221.9 ± 1.2	–
73.9 K	–	228.4 ± 1.3
75.37 K	227.2 ± 1.3	–
76.24 K	–	233.8 ± 1.3
77.73 K	232.5 ± 1.3	–
78.59 K	–	239 ± 1.3
80 K	237.4 ± 1.3	242.1 ± 1.4
80.09 K	237.6 ± 1.3	–
80.53 K	238.8 ± 1.3	–
80.94 K	–	244.2 ± 1.4
81.02 K	–	244.3 ± 1.4
82.24 K	242.3 ± 1.3	–
82.44 K	242.6 ± 1.3	–
82.84 K	–	248.2 ± 1.4
83.3 K	–	249.2 ± 1.4
83.96 K	245.9 ± 1.4	–
84.55 K	–	251.8 ± 1.4
85.68 K	249.4 ± 1.4	–
86.26 K	–	255.5 ± 1.4
87.42 K	253.1 ± 1.4	–
87.99 K	–	259.2 ± 1.4
89.16 K	256.6 ± 1.4	–
89.72 K	–	262.8 ± 1.5
90 K	258.5 ± 1.3	263.4 ± 1.4
90.91 K	260.3 ± 1.4	–
91.45 K	–	266.4 ± 1.4
92.66 K	263.9 ± 1.4	–
93.2 K	–	270 ± 1.4
94.42 K	267.5 ± 1.4	–
94.95 K	–	273.7 ± 1.4
96.19 K	271.1 ± 1.4	–
96.7 K	–	277.2 ± 1.4
97.97 K	274.7 ± 1.4	–
98.47 K	–	280.8 ± 1.5
99.75 K	278.1 ± 1.5	–
100 K	278.7 ± 1.4	283.9 ± 1.5
100.23 K	–	284.3 ± 1.5
101.59 K	281.8 ± 1.5	–
102.07 K	–	288.2 ± 1.5
103.5 K	285.5 ± 1.5	–
103.96 K	–	292 ± 1.5
105.42 K	289.1 ± 1.5	–
105.87 K	–	295.9 ± 1.5
107.35 K	292.7 ± 1.5	–
107.77 K	–	299.7 ± 1.6
109.27 K	296.4 ± 1.5	–
109.69 K	–	303.6 ± 1.6
110 K	297.7 ± 1.6	304.1 ± 1.6
111.21 K	299.9 ± 1.6	–
111.6 K	–	307.4 ± 1.6
113.14 K	303.5 ± 1.6	–
113.52 K	–	311.1 ± 1.6
115.09 K	307 ± 1.6	–
115.45 K	–	314.9 ± 1.6
117.03 K	310.5 ± 1.6	–
117.37 K	–	318.6 ± 1.6
118.98 K	314 ± 1.6	–
119.3 K	–	322.3 ± 1.7
120 K	315.8 ± 1.7	323.7 ± 1.7
120.92 K	317.4 ± 1.6	–
121.23 K	–	326.1 ± 1.7
122.88 K	320.8 ± 1.7	–
123.16 K	–	329.9 ± 1.7
124.83 K	324.3 ± 1.7	–
125.09 K	–	333.6 ± 1.7
126.79 K	327.7 ± 1.7	–
127.03 K	–	337.4 ± 1.7
128.75 K	331.1 ± 1.7	–
128.97 K	–	341.2 ± 1.8
130 K	333.3 ± 1.7	343.2 ± 1.8
130.71 K	334.5 ± 1.7	–
130.9 K	–	345.1 ± 1.8
132.67 K	337.9 ± 1.7	–
132.84 K	–	348.9 ± 1.8
134.64 K	341.3 ± 1.8	–
134.78 K	–	352.7 ± 1.8
136.6 K	344.8 ± 1.8	–
136.72 K	–	356.6 ± 1.8
138.57 K	348 ± 1.8	–
138.66 K	–	360.6 ± 1.9
140 K	350.5 ± 1.8	363.3 ± 1.9
140.54 K	351.4 ± 1.8	–
140.6 K	–	364.4 ± 1.9
142.51 K	354.8 ± 1.8	–
